# Where two headings read alike, the source gives them in different places.
# Tests used:
# [1] = target: T1, hCCR3 (Homo sapiens, UniProt P51677); assay: Ca2+ mobilization in hCCR3-RBL and hCCR3 K562 cells (test B); format: cell-based
# T1 construct: expressed in transfected cells; host or cells: K562 and RBL2H3 cells
# T1 sequence (P51677 1-355): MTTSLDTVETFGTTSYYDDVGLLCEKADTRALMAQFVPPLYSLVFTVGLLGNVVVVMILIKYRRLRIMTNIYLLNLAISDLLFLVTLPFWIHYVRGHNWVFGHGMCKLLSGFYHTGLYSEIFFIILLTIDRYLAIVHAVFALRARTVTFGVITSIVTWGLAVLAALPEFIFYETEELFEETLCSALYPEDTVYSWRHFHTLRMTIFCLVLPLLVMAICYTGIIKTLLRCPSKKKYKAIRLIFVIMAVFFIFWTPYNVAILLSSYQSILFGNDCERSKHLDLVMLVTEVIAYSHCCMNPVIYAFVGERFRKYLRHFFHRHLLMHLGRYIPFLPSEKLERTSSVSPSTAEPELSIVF
# Procedure: B.) Investigation of Ca^2+ Mobilization in hCCR3-RBL and hCCR3 K562 Cells
# HCCR3-K562 and hCCE3-RBL2H3 cells in 40,000 cells/well density (number of cells in one well of the microplate) are cultured for 24 hours. The cells are washed and loaded with calcium indicator dye (Calcium Plus assay Kit, Molecular Devices). The cells are incubated in the presence of the dye for 60 minutes while loading takes place. The dye is a fluorescent calcium indicator, which sensitively indicates the intracellular calcium concentration. The intracellular calcium concentration is in direct ratio with the fluorescent signal of the sample. The experiments are performed in a BMG NOVOSTAR apparatus, at […].
# The selective agonists used in the experiments are:
# In the experiments an agonist concentration is used which causes a 75% calcium signal compared to the maximum attainable signal.
# Antagonists are added 15 minutes before the agonist treatment.
# The change of the fluorescent signal is monitored for 30 seconds, during that period the process takes place.
# The intensity of the maximum calcium signal following the addition of the agonist is compared with the calcium signal obtained after the addition of the same agonist, but in the presence of the inhibitor.
# The activity of the compounds is characterized with the IC50 values.
# [2] = test B, inhibition of agonist-induced calcium signal in hCCR3-K562 / hCCR3-RBL2H3 cells, antagonist added 15 minutes before agonist, read-out: IC50
IC50 [1],melting point,Molecule,"IC50 [1, 2]"
0.9 nM,111 to 112 °C,"O=C(CCc1nc2ccc(N3CCOCC3)nc2s1)NCCCN1CCCC1c1ccc(Cl)c(Cl)c1 (centres unmarked) [Example 5, N-{3-[2-(3,4-dichlorophenyl)pyrrolidin-1-yl]propyl}-3-(5-morpholin-4-yl[1,3]thiazolo[5,4-b]pyridin-2-yl)propionamide]",
3.9 nM,105 °C,O=C(CCc1nc2ncc(N3CCCCC3)nc2s1)NCCCN1CCCC1c1ccc(Cl)c(Cl)c1 (centres unmarked) [Example 9],
,,"N-{3-[2-(3,4-dichlorophenyl)-1-oxidopyrrolidin-1-yl]propyl}-3-(5-morpholin-4-yl[1,3]thiazolo[4,5-b]pyridin-2-yl)propionamide [Example 21]",82.5 nM
18 nM,119 to 121 °C,"CNc1ccc2nc(CCC(=O)NCCCN3CCCC3c3ccc(Cl)c(Cl)c3)sc2n1 (centres unmarked) [Example 2, N-{3-[2-(3,4-dichlorophenyl)pyrrolidin-1-yl]propyl}-3-(5-(methylamino)[1,3]thiazolo[5,4-b]pyridin-2-yl)propionamide]",
,76 to 79 °C,Cc1ccc2nc(CCC(=O)NCCCN3CCCC3c3ccc(Cl)c(Cl)c3)sc2c1 (centres unmarked),
,115 to 118 °C,CCNC(=O)N[N+]1(CCCNC(=O)CCc2nc3nc(N4CC(C)OC(C)C4)ccc3s2)CCCC1c1ccc(Cl)c(Cl)c1.Cl (centres unmarked),
,,"1-(Acetylamino)-2-(3,4-dichlorophenyl)-1-(3-{[3-(5-piperidin-1-yl[1,3]thiazolo[4,5-b]pyridin-2-yl)propanoyl]amino}propyl)pyrrolidinium hydrochloride [Example 23]",13 nM
5 nM,137 to 138 °C,"O=C(CCc1nc2ccc(N3CCCC3)nc2s1)NCCCN1CCCC1c1ccc(Cl)c(Cl)c1 (centres unmarked) [Example 3, N-{3-[2-(3,4-dichlorophenyl)pyrrolidin-1-yl]propyl}-3-(5-pyrrolidin-1-yl[1,3]thiazolo[5,4-b]pyridin-2-yl)propionamide]",
13 nM,185 to 187 °C,O=C(CCc1nc2ccc(N3CCCCC3)nc2s1)NCCC[N+]1([O-])CCCC1c1ccc(Cl)c(Cl)c1 (centres unmarked) [Example 20],
1.6 nM,,"CC1CN(c2ccc3nc(CCC(=O)NCCCN4CCCC4c4ccc(Cl)c(Cl)c4)sc3n2)CC(C)O1 (centres unmarked) [Example 11, N-{3-[2-(3,4-dichlorophenyl)pyrrolidin-1-yl]propyl}-3-(5-(2,6-dimethylmorpholin-4-yl)[1,3]thiazolo[5,4-b]pyridin-2-yl)propionamide]",
,125 to 130 °C,Cc1ccc2nc(CCC(=O)NCCCN3CCCC3c3ccc(Cl)c(Cl)c3)sc2n1 (centres unmarked),
,185 to 188 °C,O=C(CCc1nc2nc(N3CCCC3)ccc2s1)NCCC[N+]1([O-])CCCC1c1ccc(Cl)c(Cl)c1 (centres unmarked),
3.4 nM,93 to 95 °C,"O=C(CCc1nc2ccc(N3CCCCC3)nc2s1)NCCCN1CCCC1c1ccc(Cl)c(Cl)c1 (centres unmarked) [Example 4, N-{3-[2-(3,4-dichlorophenyl)pyrrolidin-1-yl]propyl}-3-(5-piperidin-1-yl[1,3]thiazolo[5,4-b]pyridin-2-yl)propionamide]",
,,"1-Amino-2-(3,4-dichlorophenyl)-1-(3-{[3-(5-pyrrolidin-1-yl[1,3]thiazolo[4,5-b]pyridin-2-yl)propanoyl]amino}propyl)pyrrolidinium tosylate [Example 14]",1 nM
